# Results: US6914045B2, “Glycopeptide antibiotics” (Wyeth Holdings Corporation, priority 2001, dated 2005)
# Experiments:
# Assay in all cases: in vitro antibacterial evaluation, MIC by broth dilution
# Assay type in all cases: cell-based
# Escherichia coli = test system: Escherichia coli
# Outline: (§1)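 Step 1: dilute antibiotic across 64-0.06 μg/mL in Muller-Hinton II […]. Step 2: inoculate at 5×10^5 CFU/mL.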
# Staphylococcus sp. = conditions: broth dilution, 18 hours at 35° C.; for MIC Staphylococcus aureus (GC 1131): strain GC 1131
# Outline: as §1
# Streptococcus sp. = conditions: broth dilution, 18 hours at 35° C.; for MIC Streptococcus pneumoniae (ATCC 6301): strain ATCC 6301; for MIC Streptococcus pneumoniae (GC 1894): strain GC 1894; for MIC Streptococcus pyogenes (GC 4563): strain GC 4563; for MIC Streptococcus agalactiae (GC 4564): strain GC 4564; for MIC Streptococcus pneumoniae (GC 4565): strain GC 4565
# Outline: as §1
# Enterococcus sp. = conditions: broth dilution, 18 hours at 35° C.; for MIC Enterococcus faecalis (ATCC 29212): strain ATCC 29212; for MIC Enterococcus faecalis (GC 2242): strain GC 2242; for MIC Enterococcus faecium (GC 2243): strain GC 2243; for MIC Enterococcus faecalis (GC 2691): strain GC 2691; for MIC Enterococcus faecalis (GC 3059): strain GC 3059; for MIC Enterococcus faecalis (GC 4552): strain GC 4552; for MIC Enterococcus faecalis (GC 4553): strain GC 4553; for MIC Enterococcus faecalis (GC 4554): strain GC 4554; for MIC Enterococcus faecium (GC 4556): strain GC 4556; for MIC Enterococcus faecium (GC 4557): strain GC 4557; for MIC Enterococcus avium (GC 4558): strain GC 4558; for MIC Enterococcus faecalis (GC 6189): strain GC 6189
# Outline: as §1
smiles,measurement,setting,value
CC(c1ccccc1)C1NC(=O)CNC(=O)C(CO)NC(=O)C(C(O)C2CNC(=N)N2C2OC(CO)C(O)C(O)C2O)NC(=O)C(C(O)C2CNC(=N)N2)NC(=O)C(Cc2ccc(OC3OC(CO)C(OC4OC5COC(c6ccc(C(=O)c7ccccc7)cc6)OC5C(O)C4O)C(O)C3O)cc2)NC1=O (centres unmarked) [Example 173],MIC Escherichia coli (ATCC 25922),"Escherichia coli; strain ATCC 25922, 18 hours at 35° C.",32 µg/mL
same,MIC Escherichia coli (GC 4559),"Escherichia coli; strain GC 4559, 18 hours at 35° C.",16 µg/mL
same,MIC Escherichia coli (GC 4560),"Escherichia coli; strain GC 4560, 18 hours at 35° C.",0.5 µg/mL
same,MIC Staphylococcus aureus (GC 1131),Staphylococcus sp.; inoculum 5×10^5 CFU/mL,2 µg/mL
same,MIC Staphylococcus aureus (ATCC 29213),Staphylococcus sp.; strain ATCC 29213,1 µg/mL
same,MIC Staphylococcus aureus (GC 1131),Staphylococcus sp.,2 µg/mL
same,MIC Staphylococcus aureus (GC 3051),Staphylococcus sp.; strain GC 3051,0.5 µg/mL
same,MIC Staphylococcus aureus (GC 3053),Staphylococcus sp.; strain GC 3053,1 µg/mL
same,MIC Staphylococcus aureus (GC 4541),Staphylococcus sp.; strain GC 4541,0.5 µg/mL
same,MIC Staphylococcus aureus (GC 4542),Staphylococcus sp.; strain GC 4542,0.5 µg/mL
same,MIC Staphylococcus aureus-SMITH (GC 4543),Staphylococcus sp.; strain GC 4543,0.5 µg/mL
same,MIC Staphylococcus aureus (GC 4544),Staphylococcus sp.; strain GC 4544,2 µg/mL
same,MIC Staphylococcus aureus (GC 4545),Staphylococcus sp.; strain GC 4545,2 µg/mL
same,MIC Staphylococcus haemolyticus (GC 4546),Staphylococcus sp.; strain GC 4546,1 µg/mL
same,MIC Coagulase Negative Staphylococcus (GC 4547),Staphylococcus sp.; strain GC 4547,2 µg/mL
same,MIC Coagulase Negative Staphylococcus (GC 4548),Staphylococcus sp.; strain GC 4548,0.5 µg/mL
same,MIC Coagulase Negative Staphylococcus (GC 4549),Staphylococcus sp.; strain GC 4549,0.25 µg/mL
same,MIC Coagulase Negative Staphylococcus (GC 4551),Staphylococcus sp.; strain GC 4551,0.5 µg/mL
same,MIC Coagulase Negative Staphylococcus (GC 6257),Staphylococcus sp.; strain GC 6257,0.5 µg/mL
same,MIC Streptococcus pneumoniae (ATCC 6301),Streptococcus sp.; inoculum 5×10^5 CFU/mL,<0.12 µg/mL
same,MIC Streptococcus pneumoniae (GC 1894),Streptococcus sp.; inoculum 5×10^5 CFU/mL,<0.12 µg/mL
same,MIC Streptococcus pyogenes (GC 4563),Streptococcus sp.; inoculum 5×10^5 CFU/mL,<0.12 µg/mL
same,MIC Streptococcus agalactiae (GC 4564),Streptococcus sp.; inoculum 5×10^5 CFU/mL,<0.12 µg/mL
same,MIC Streptococcus pneumoniae (GC 4565),Streptococcus sp.; inoculum 5×10^5 CFU/mL,<0.12 µg/mL
same,MIC Streptococcus pneumoniae (ATCC 6301),Streptococcus sp.,<0.12 µg/mL
same,MIC Streptococcus pneumoniae (GC 1894),Streptococcus sp.,<0.12 µg/mL
same,MIC Streptococcus pyogenes (GC 4563),Streptococcus sp.,<0.12 µg/mL
same,MIC Streptococcus agalactiae (GC 4564),Streptococcus sp.,<0.12 µg/mL
same,MIC Streptococcus pneumoniae (GC 4565),Streptococcus sp.,<0.12 µg/mL
same,MIC Enterococcus faecalis (ATCC 29212),Enterococcus sp.; inoculum 5×10^5 CFU/mL,1 µg/mL
same,MIC Enterococcus faecalis (GC 2242),Enterococcus sp.; inoculum 5×10^5 CFU/mL,2 µg/mL
same,MIC Enterococcus faecium (GC 2243),Enterococcus sp.; inoculum 5×10^5 CFU/mL,2 µg/mL
same,MIC Enterococcus faecalis (GC 2691),Enterococcus sp.; inoculum 5×10^5 CFU/mL,2 µg/mL
same,MIC Enterococcus faecalis (GC 3059),Enterococcus sp.; inoculum 5×10^5 CFU/mL,2 µg/mL
same,MIC Enterococcus faecalis (GC 4552),Enterococcus sp.; inoculum 5×10^5 CFU/mL,2 µg/mL
same,MIC Enterococcus faecalis (GC 4553),Enterococcus sp.; inoculum 5×10^5 CFU/mL,2 µg/mL
same,MIC Enterococcus faecalis (GC 4554),Enterococcus sp.; inoculum 5×10^5 CFU/mL,2 µg/mL
same,MIC Enterococcus faecium (GC 4556),Enterococcus sp.; inoculum 5×10^5 CFU/mL,1 µg/mL
same,MIC Enterococcus faecium (GC 4557),Enterococcus sp.; inoculum 5×10^5 CFU/mL,2 µg/mL
same,MIC Enterococcus avium (GC 4558),Enterococcus sp.; inoculum 5×10^5 CFU/mL,1 µg/mL
same,MIC Enterococcus faecalis (GC 6189),Enterococcus sp.; inoculum 5×10^5 CFU/mL,1 µg/mL
same,MIC Enterococcus faecalis (ATCC 29212),Enterococcus sp.,1 µg/mL
same,MIC Enterococcus faecalis (GC 2242),Enterococcus sp.,2 µg/mL
same,MIC Enterococcus faecium (GC 2243),Enterococcus sp.,2 µg/mL
same,MIC Enterococcus faecalis (GC 2691),Enterococcus sp.,2 µg/mL
same,MIC Enterococcus faecalis (GC 3059),Enterococcus sp.,2 µg/mL
same,MIC Enterococcus faecalis (GC 4552),Enterococcus sp.,2 µg/mL
same,MIC Enterococcus faecalis (GC 4553),Enterococcus sp.,2 µg/mL
same,MIC Enterococcus faecalis (GC 4554),Enterococcus sp.,2 µg/mL
same,MIC Enterococcus faecium (GC 4556),Enterococcus sp.,1 µg/mL
same,MIC Enterococcus faecium (GC 4557),Enterococcus sp.,2 µg/mL
same,MIC Enterococcus avium (GC 4558),Enterococcus sp.,1 µg/mL
same,MIC Enterococcus faecalis (GC 6189),Enterococcus sp.,1 µg/mL
